Test results from patent publication US9532962B2, “Medium-chain length fatty acids and glycerides as nephroprotection agents” (priority 2007, dated 2017).
“Also recorded” adds a separate entry of the source.

Assays:
C57B1/6 mice = experiment: Doxorubicin-induced nephrotoxicity model; assay type: in vivo; settings: for histological kidney lesions score at the tubular level induced by doxorubicin / serum urea induced by doxorubicin: oral; for serum creatinine induced by doxorubicin: FIG. 9; for serum urea induced by doxorubicin: FIG. 10; for histological kidney lesions score: 10 mg/kg i.v. at day 0
Experimental: C57B1/6 mice (6-10 week-old) were treated with sodium caprate prophylacticly from day −3 to day 10 or treated therapeutically from day 1 to 10. Nephrotoxicity was induced by an intravenous injection of 10 mg/kg of doxorubicin at day 0, Serum creatinine and urea were monitored at day 4, 7 and 11.

[1] = system: 5/6 nephrectomized (Nx) rats; experiment: Heart protection (blood pressure) in 5/6 nephrectomized (Nx) rat model; assay type: in vivo; settings: RTBP 2000, FIG. 8
Experimental: (§1) Male 6 week-old Wistar rats were subjected to 5/6 nephrectomy or sham operations. Under ketamine anesthesia (60 to 100 mg/kg, i.p.), renal ablation was achieved by removing two-thirds of the left kidney followed by a right unilateral nephrectomy 7 days later. Sham rats underwent exposition of the kidneys and removal of the perirenal fat. Twenty-one days after the first operation, rats were assigned in the study if the serum creatinine was greater than 125 μmol/L indicating a dysfunction of the kidney. Animals that underwent the sham operation were given vehicle (saline) and were used as controls. Nx animals were divided in groups receiving the vehicle or sodium caprate. Saline or sodium caprate was given by gastric gavage once daily for 35 days. Serum creatinine was measured weekly in order to assess the severity of this end-stage renal disease model. Rats were sacrificed at day 63.

[2] = system: 5/6 nephrectomized (Nx) rats; experiment: Kidney protection in 5/6 nephrectomized (Nx) rat model; assay type: in vivo, Wistar rats
Experimental: as §1

[3] = prophylactic (pre-doxorubicin) treatment
[4] = therapeutic (post-doxorubicin) treatment

Compound | histological kidney lesions score at the tubular level induced by doxorubicin (C57B1/6 mice; [3]) | serum creatinine induced by doxorubicin (C57B1/6 mice; prophylactic treatment day -3 to day 10, oral) | protection of kidney against doxorubicin toxicity, histological micrographs (C57B1/6 mice; prophylactic treatment, 400×) | serum urea induced by doxorubicin (C57B1/6 mice; prophylactic treatment) | histological kidney lesions score at the tubular level induced by doxorubicin (C57B1/6 mice; [4]) | protection of kidney against doxorubicin toxicity, histological micrographs (C57B1/6 mice; therapeutic treatment) | serum creatinine induced by doxorubicin (C57B1/6 mice; therapeutic treatment day 1 to 10, oral) | serum urea induced by doxorubicin (C57B1/6 mice; therapeutic treatment) | blood pressure [1] | kidney structure (density, glomerulus and tubular structure), histological micrographs ([2]; 40×, compared to control Nx rats, FIG. 6) | fibrosis and necrosis of the kidney tissue, histological micrographs ([2]; 400×, glomerulus level, FIG. 7) | serum creatinine ([2]; compared to control Nx rats, FIG. 5) | urine creatinine ([2]; day 21 to day 42, FIG. 4) | animals showing reduction of initial serum creatinine concentration ([2]; sodium caprate-treated Nx rats, FIG. 2) [%] | histological lesions in affected tubular regions (micrographs) (C57B1/6 mice; 10 mg/kg i.v. at day 0, 400×) | histological kidney lesions score (C57B1/6 mice; day 7 and 11, FIG. 11) | histological kidney lesions score (C57B1/6 mice; day 12, FIG. 13)
CCCCCCCCCC(=O)[O-].[Na+] [sodium caprate] | reduce the kidney lesions | inhibits the increase of serum creatinine induced by doxorubicin to a similar level observed in control mice | protects kidney against doxorubicin toxicity | inhibits the increase of serum urea induced by doxorubicin to a similar level observed in control mice | reduce the kidney lesions | protects kidney against doxorubicin toxicity | reduces the serum creatinine level | inhibits the increase of serum urea induced by doxorubicin to a similar level observed in control mice | significant decrease | more conserved | reduces fibrosis and necrosis | significant (p=0.00006) decrease | significant (p=0.0002) increase | 80 |  |  | 
COc1cccc2c1C(=O)c1c(O)c3c(c(O)c1C2=O)C[C@@](O)(C(=O)CO)C[C@@H]3O[C@H]1C[C@H](N)[C@H](O)[C@H](C)O1 [doxorubicin, reference compound] |  |  |  |  |  |  |  |  |  |  |  |  |  |  | induces kidney cell apoptosis, fibrosis, sclerosis, and accumulation of proteins; also recorded: induces kidney cell apoptosis, fibrosis, sclerosis and accumulation of proteins | induces significant kidney lesions | induces significant kidney lesions
CCCCCCCCCC(=O)OCC(COC(=O)CCCCCCCCC)OC(=O)CCCCCCCCC [tricaprin] | reduces the kidney lesions |  | protects kidney against doxorubicin toxicity |  | reduces the kidney lesions | protects kidney against doxorubicin toxicity |  |  |  |  |  |  |  |  |  |  | 
